Experimental data as given in ChEMBL document CHEMBL1201862, “PubChem BioAssay data set” (2004).
The source made the active and inactive calls.

Legend:
Vero [1] = assay: host cell viability loss, Vero E6 – synthesized analogs, cytotoxicity control for West Nile virus antiviral project, SAR follow-up (AID 2244); format: functional; settings: Chlorocebus sabaeus
Vero [2] = assay: antiviral protection of cells from WNV – synthesized analogs, SAR follow-up (AID 2238); format: functional, cell-based; settings: Chlorocebus sabaeus
Vero [3] = assay: Vero cell viability after compound exposure – synthesized analogs, set II, cytotoxicity control for West Nile virus antiviral project, SAR follow-up (AID 2402); format: functional; settings: Chlorocebus sabaeus
Vero [4] = assay: Vero 76 cell viability after compound exposure – Vero 76 cells, synthesized analogs, cytotoxicity control for West Nile virus antiviral project, SAR follow-up (AID 2414); format: functional; settings: Chlorocebus sabaeus
[5] = target: T1, Eukaryotic translation initiation factor 4H (Homo sapiens, UniProt Q15056); assay: eIF4H binding inhibition – biochemical, uHTS, fluorescence polarization, translation initiation inhibitor project, primary screen (AID 2012)
[6] = target: T2, Polyadenylate-binding protein 1 (Homo sapiens, UniProt P11940); assay: PABP inhibition in translation initiation, SAR follow-up (AID 435018); format: functional
T2 sequence (P11940 whole entry): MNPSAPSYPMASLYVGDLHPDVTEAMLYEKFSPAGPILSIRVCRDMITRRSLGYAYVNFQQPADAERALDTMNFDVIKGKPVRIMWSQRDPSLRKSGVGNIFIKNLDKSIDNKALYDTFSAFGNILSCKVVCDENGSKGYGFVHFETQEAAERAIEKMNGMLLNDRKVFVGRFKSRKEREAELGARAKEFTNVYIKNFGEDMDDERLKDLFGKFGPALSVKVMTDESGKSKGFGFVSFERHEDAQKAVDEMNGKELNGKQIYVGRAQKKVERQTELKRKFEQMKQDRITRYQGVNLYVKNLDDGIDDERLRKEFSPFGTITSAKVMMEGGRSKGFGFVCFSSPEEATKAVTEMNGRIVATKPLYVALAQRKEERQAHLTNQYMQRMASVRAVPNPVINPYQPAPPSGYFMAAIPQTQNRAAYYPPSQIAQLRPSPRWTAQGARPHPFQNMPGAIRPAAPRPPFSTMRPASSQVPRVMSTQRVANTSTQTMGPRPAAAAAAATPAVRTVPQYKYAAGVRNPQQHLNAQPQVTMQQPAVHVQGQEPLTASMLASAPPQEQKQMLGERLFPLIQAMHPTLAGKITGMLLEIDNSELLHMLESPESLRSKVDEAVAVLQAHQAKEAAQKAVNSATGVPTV

[7] = target: T2, Polyadenylate-binding protein 1; assay: blockers of PABP interaction with poly(A) – biochemical, fluorescence polarization, […] (AID 2014)
[8] = target: T1, Eukaryotic translation initiation factor 4H; assay: inhibitors of translation initiation factor eIF4H – SAR follow-up (AID 435011); format: functional
[9] = target: T3, Short transient receptor potential channel 4 (Mus musculus, UniProt Q9QUQ5); assay: potentiation of DAMGO-evoked TRPC4 calcium signal – cell-based, HEK293 TRPC4/mu-opioid, Fluo-4 calcium, EC20 DAMGO, dose response (AID 434941); format: functional
T3 sequence (Q9QUQ5 whole entry): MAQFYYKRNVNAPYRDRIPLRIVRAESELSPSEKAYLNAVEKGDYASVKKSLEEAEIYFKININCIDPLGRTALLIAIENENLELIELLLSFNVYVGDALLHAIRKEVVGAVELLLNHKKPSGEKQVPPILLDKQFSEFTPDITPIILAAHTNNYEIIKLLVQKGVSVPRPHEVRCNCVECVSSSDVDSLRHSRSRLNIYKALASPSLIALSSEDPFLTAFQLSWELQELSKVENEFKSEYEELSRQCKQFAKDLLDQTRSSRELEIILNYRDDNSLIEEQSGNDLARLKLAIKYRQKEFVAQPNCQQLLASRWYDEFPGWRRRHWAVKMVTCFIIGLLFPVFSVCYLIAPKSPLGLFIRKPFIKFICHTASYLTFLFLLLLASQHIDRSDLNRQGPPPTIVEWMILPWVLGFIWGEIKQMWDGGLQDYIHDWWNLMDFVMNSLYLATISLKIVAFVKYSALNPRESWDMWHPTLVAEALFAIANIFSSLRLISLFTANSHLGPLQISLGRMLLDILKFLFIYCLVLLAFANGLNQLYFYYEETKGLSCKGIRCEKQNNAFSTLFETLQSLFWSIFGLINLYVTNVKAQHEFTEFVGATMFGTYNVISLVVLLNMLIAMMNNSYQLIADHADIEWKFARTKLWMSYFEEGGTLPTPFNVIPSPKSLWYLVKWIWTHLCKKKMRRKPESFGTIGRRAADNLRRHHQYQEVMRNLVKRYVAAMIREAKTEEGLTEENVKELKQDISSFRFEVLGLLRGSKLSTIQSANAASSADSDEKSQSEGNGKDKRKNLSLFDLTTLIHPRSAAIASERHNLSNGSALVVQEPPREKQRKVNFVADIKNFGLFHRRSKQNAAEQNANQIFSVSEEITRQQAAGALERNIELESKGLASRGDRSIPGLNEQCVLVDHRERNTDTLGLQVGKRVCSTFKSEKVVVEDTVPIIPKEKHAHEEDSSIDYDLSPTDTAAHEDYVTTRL

Saccharomyces cerevisiae = assay: S. cerevisiae Caspase-1/ASC signal blockers IC50, NALP1 inhibitor project selectivity test (AID 488863); format: functional, organism-based
Beta Lactamase = Beta Lactamase (Pseudomonas aeruginosa, UniProt Q932Y6); assay: BLA reporter interference, concentration series – BLA reporter cells, FRET fluorescence, artefact control for TLR9-MyD88 binding inhibitor project, dose response (AID 588341); format: cell-based;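 further: cell based assay in CHO-K1 cells stably expressing beta-lactamase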
Chain of Beta Lactamase (Q932Y6 whole entry): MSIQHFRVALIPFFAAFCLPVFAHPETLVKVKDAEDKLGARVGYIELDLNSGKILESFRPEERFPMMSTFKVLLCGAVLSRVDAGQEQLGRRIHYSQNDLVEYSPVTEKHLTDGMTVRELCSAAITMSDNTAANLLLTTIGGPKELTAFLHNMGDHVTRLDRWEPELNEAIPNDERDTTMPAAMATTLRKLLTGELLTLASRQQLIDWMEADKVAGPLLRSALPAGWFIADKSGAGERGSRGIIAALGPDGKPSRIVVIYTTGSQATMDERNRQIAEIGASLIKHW

[10] = target: T4, Replicative DNA helicase DnaB (Mycobacterium tuberculosis, UniProt P9WMR3); assay: DnaB intein splicing inhibitors, dose response, biochemical, cell-free fluorescence (AID 449749); format: functional
T4 sequence (P9WMR3 whole entry): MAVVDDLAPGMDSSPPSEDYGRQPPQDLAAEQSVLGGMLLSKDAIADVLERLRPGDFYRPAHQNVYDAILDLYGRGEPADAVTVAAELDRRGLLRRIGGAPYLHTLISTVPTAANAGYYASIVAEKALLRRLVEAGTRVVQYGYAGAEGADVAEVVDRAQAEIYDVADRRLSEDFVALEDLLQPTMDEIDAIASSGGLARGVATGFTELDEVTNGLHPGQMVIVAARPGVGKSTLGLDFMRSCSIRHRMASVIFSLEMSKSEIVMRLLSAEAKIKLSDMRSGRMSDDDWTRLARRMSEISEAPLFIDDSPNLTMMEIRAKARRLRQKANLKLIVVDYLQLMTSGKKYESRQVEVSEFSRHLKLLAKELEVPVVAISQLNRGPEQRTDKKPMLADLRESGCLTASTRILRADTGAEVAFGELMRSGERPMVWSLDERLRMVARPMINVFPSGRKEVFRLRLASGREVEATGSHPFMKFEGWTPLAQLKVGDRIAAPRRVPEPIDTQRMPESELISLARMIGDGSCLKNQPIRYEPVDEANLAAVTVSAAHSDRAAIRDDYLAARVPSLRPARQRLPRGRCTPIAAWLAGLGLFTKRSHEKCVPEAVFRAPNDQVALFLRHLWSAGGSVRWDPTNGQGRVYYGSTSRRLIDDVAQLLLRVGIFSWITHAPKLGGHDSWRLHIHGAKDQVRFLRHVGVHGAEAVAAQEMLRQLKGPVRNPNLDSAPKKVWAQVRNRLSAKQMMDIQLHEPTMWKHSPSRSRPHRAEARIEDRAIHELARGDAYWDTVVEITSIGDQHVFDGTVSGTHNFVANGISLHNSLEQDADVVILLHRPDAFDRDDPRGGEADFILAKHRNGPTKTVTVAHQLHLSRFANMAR

[11] = target: NACHT, LRR and PYD domains-containing protein 1 (Homo sapiens, UniProt Q9C000); assay: NALP1 inhibitors in yeast, dose response, luminescent (AID 488860); format: functional
Chain of NACHT, LRR and PYD domains-containing protein 1 (Q9C000 1-1212 limits assumed): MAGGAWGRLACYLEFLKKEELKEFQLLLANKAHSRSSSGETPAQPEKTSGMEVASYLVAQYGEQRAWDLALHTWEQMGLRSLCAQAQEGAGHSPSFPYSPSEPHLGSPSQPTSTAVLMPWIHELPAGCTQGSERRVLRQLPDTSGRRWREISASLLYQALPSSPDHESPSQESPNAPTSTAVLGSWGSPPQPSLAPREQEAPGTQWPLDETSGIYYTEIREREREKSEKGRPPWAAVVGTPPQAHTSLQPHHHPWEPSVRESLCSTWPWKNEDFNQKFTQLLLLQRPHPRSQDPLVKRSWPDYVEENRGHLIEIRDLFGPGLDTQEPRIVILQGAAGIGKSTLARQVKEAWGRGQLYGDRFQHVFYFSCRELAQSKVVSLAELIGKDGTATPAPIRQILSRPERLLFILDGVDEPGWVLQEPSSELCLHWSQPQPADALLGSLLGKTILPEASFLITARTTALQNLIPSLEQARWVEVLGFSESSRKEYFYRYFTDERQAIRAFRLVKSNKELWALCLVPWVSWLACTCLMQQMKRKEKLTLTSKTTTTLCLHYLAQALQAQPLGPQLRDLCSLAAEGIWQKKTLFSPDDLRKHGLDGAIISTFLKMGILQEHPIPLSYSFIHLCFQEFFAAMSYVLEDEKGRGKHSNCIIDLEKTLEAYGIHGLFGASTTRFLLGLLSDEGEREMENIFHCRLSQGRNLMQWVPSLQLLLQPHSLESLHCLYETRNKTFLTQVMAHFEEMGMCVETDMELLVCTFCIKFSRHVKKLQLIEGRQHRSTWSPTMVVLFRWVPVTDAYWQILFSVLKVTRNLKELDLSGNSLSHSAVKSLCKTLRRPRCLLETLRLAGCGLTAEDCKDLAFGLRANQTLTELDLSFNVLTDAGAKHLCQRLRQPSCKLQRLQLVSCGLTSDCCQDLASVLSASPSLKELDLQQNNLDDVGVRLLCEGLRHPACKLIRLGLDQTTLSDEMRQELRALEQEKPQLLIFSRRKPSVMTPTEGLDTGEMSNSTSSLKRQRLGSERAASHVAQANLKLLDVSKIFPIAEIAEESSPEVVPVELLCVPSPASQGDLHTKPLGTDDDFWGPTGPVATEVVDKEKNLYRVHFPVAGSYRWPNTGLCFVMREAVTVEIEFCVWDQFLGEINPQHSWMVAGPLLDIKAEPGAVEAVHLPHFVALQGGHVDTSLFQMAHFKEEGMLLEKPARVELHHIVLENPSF
Chain of NACHT, LRR and PYD domains-containing protein 1 (Q9C000 1213-1473 limits assumed): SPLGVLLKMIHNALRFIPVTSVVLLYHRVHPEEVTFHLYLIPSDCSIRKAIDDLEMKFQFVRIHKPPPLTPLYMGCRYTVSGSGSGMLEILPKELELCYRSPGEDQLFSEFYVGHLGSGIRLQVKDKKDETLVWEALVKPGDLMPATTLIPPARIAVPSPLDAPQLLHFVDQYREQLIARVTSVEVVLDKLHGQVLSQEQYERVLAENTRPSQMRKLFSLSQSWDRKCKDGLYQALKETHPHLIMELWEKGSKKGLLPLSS

HEK293 [12] = assay: cells; settings: Homo sapiens
HEK293 [13] = assay: cells; settings: Homo sapiens; remark: listed apart in the source
[14] = target: G-protein coupled receptor 35 (Homo sapiens, UniProt Q9HC97); assay: inhibition of zaprinast-stimulated GPR35 beta-arrestin translocation – imaging, U2OS, beta-arrestin-GFP, zaprinast agonist, primary screen (AID 2058); format: functional;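 further: antagonist potency meaning inhibition of agonist-induced arrestin redistribution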
Chain of G-protein coupled receptor 35 (Q9HC97 whole entry): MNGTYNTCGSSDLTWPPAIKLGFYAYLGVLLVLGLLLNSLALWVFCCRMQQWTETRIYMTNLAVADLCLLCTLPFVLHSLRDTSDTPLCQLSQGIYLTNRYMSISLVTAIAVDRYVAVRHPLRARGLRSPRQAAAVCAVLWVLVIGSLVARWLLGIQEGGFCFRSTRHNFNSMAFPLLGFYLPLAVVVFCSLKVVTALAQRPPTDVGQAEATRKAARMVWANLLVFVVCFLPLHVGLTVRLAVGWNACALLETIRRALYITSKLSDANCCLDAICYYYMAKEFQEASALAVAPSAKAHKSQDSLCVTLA

Protein RecA = target: T5, Protein RecA (Mycobacterium tuberculosis, UniProt P9WHJ3); assay: Fluorescence Cell-Free Homogeneous Dose Retest to Identify Inhibitors of RecA-Intein Splicing Activity. [Related pubchem assays (depositor defined):AID2097, AID2223, AID489010, AID492950]; format: functional
T5 sequence (P9WHJ3 whole entry): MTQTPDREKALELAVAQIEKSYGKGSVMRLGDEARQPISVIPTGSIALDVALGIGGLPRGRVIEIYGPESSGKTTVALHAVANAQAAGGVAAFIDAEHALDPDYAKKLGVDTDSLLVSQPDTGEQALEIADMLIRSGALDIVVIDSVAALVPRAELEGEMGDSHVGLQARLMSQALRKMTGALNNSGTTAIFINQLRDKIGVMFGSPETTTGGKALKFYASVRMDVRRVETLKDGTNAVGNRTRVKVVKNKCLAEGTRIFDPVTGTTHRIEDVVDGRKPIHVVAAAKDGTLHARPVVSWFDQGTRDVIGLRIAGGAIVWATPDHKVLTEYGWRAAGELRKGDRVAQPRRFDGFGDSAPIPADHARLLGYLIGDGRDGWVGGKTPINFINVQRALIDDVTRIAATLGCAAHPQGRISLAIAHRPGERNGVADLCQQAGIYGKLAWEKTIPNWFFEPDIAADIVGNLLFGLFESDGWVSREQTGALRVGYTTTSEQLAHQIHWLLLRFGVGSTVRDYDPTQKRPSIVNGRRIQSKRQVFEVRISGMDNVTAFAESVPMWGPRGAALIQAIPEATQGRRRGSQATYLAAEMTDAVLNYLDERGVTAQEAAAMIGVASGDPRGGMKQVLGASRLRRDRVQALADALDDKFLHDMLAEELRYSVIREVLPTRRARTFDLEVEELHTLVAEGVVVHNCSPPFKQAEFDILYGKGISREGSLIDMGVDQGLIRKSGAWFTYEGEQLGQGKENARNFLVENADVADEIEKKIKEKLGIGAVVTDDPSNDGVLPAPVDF

CHO = CHO cell viability loss, potency – luminescence, cytotoxicity control for TLR9-MyD88 binding inhibitor project, dose response (AID 588339); format: functional, cell-based, hamster; settings: Cricetulus griseus;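 further: CHO cells stably coexpressing TLR9 and MyD88 fusions from primary screen; compound exposure lasted 48 hours before viability readout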
[15] = target: T6, Heat shock factor protein 1 (Mus musculus, UniProt P38532); assay: decrease of HSF1-responsive luciferase luminescence – cell-based, NIH3T3, dose retest, confirmation (AID 2382); format: functional;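 further: NIH3T3 fibroblasts with HSF1-driven luciferase reporter stressed by proteasome inhibitor MG132; luminescence from HSF1-driven luciferase expression after 8 hours of MG132 stress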
T6 sequence (P38532 whole entry): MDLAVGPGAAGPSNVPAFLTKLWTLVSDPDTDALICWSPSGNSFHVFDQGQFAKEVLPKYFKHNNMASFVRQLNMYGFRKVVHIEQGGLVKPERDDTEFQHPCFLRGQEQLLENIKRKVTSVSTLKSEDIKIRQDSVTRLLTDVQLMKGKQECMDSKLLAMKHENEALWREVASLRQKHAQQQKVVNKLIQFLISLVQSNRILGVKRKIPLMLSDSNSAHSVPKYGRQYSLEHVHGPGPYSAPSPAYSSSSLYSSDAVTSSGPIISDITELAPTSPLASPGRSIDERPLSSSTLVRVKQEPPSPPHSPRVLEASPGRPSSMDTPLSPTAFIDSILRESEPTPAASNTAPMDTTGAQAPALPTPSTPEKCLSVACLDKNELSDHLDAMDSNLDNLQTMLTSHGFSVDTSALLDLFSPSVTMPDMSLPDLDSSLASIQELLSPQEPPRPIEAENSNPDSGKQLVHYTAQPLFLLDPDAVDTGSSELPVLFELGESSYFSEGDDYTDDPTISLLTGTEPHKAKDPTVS

Beta-galactosidase = Beta-galactosidase (Escherichia coli, UniProt Q8VNN2); assay: detection-enzyme interference by beta-gal modulators – biochemical, E. coli enzyme, set 3, artefact control for CCR6 antagonist project, dose response (AID 504712); format: functional
Chain of Beta-galactosidase (Q8VNN2 whole entry): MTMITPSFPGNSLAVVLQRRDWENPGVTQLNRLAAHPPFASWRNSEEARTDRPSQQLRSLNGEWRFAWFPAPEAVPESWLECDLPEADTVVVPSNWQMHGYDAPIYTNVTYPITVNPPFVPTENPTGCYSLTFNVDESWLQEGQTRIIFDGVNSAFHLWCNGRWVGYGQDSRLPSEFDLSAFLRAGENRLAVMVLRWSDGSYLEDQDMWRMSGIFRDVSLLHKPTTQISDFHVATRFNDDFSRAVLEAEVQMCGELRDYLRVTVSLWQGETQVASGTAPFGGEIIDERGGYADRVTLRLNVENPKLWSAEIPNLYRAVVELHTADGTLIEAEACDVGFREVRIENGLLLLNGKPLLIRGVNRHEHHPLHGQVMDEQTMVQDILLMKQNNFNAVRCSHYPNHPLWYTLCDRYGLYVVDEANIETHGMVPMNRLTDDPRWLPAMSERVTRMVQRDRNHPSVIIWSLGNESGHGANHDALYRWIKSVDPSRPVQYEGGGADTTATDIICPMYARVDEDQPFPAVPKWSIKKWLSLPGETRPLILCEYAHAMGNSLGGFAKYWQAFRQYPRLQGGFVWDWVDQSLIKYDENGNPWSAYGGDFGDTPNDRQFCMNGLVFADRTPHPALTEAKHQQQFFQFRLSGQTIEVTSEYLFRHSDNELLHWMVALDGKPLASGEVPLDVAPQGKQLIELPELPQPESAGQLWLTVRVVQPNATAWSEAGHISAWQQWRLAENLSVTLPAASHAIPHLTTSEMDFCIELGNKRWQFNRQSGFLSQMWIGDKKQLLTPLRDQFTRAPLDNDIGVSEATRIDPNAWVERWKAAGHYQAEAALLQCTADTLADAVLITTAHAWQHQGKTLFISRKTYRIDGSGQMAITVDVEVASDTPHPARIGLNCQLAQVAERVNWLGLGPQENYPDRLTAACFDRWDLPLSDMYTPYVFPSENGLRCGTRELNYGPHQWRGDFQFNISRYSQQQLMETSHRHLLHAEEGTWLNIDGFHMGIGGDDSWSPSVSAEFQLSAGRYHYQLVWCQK

[16] = HRAS-V12 fibroblast viability reduction – cell-based, Alamar Blue, dry powder, Ras selective lethality project, primary screen (AID 493045); format: functional; settings: BJeLR
[17] = DRD BJ cell killing, Ras synthetic lethality – DRD BJ fibroblasts, HRASV12, dry powder, dose response (AID 493049); format: functional, cell-based
[18] = BJeH cell viability loss – BJeH cells, dry powder, counter-screen for Ras selective lethality project, dose response (AID 493054); format: functional, cell-based
[19] = BJeHLT cell viability loss – BJeHLT cells, dry powder, counter-screen for Ras selective lethality project, dose response (AID 493052); format: functional, cell-based; settings: Homo sapiens

O=C(CSc1nc2ccccc2c(=O)n1-c1ccccc1F)Nc1ccc2c(c1)CCC2
CC50 (Vero [1]): > 40 µM (active)
IC50 (Vero [2]): 16.4 µM (active)
CC50 (Vero [3]): > 100 µM (active)
CC50 (Vero [4]): > 66.6 µM (active)

O=C(Nc1cccc2ncccc12)c1ccccc1Cl
IC50 [5]: > 100 µM (inactive)
IC50 [6]: 1.68 µM (active)
IC50 [7]: 4 µM (active)
IC50 [8]: 9.25 µM (active)

Cc1ccc(C(C)C)cc1OCCCCN1CCCC1
EC50 [9]: 0.53 µM (active)

CC(NC(=O)/C(C#N)=C/c1ccc([N+](=O)[O-])o1)c1ccccc1 (centres undefined)
IC50 (Saccharomyces cerevisiae): 9.51 µM (active)
IC50 (Beta Lactamase): 8.23 µM (active)
AC50 [10]: > 120 µM (inactive)
IC50 [11]: 14.3 µM (active)
EC50 (HEK293 [12]): > 59.6 µM (inactive)
EC50 (HEK293 [13]): > 59.6 µM (inactive)
IC50 [14]: 3.85 µM (active)
EC50 (Protein RecA): 35 µM (active)
IC50 (CHO): 4.03 µM (active)
EC50 [15]: 6.1 µM (active)
IC50 (Beta-galactosidase): > 66.6 µM (inactive)

COc1ccc(C(C(=O)NC2CCCCC2)N(C(=O)CCl)c2ccc(OC)c(Cl)c2)cc1 (centres undefined)
AC50 [16]: 0.122 µM (active)
AC50 [17]: 0.126 µM (active)
AC50 [18]: 0.536 µM (active)
AC50 [19]: 0.366 µM (active)
